# Reference: ChEMBL document CHEMBL1152014, “Synthesis of thiophenol derivatives as inhibitors of human collagenase” (Bioorg Med Chem Lett, 1995)
# Target: T1, Interstitial collagenase (Homo sapiens, UniProt P03956)
# T1 sequence (P03956 whole entry): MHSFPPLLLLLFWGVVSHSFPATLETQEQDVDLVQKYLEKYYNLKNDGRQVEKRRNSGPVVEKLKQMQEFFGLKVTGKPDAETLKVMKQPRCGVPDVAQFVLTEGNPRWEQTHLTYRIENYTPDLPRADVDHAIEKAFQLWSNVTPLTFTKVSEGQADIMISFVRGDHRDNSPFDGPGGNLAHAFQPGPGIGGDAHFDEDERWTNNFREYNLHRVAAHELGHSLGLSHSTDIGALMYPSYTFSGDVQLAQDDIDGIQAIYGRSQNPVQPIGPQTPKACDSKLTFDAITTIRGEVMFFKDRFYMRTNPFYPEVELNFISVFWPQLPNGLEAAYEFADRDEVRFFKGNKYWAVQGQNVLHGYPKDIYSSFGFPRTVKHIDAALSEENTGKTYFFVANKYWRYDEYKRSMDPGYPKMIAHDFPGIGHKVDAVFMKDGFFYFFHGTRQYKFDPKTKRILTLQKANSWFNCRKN
# Test: Inhibitory activity was tested against human collagenase (MMP-1)
row,IC50 [nM],Structure (SMILES)
1,140,CNC(=O)[C@H](Cc1ccc(OC)cc1)NC(=O)C(Cc1ccc(OC)cc1S)CC(C)C (stereo not given in full)
2,55,CNC(=O)[C@H](Cc1ccc(OC)cc1)NC(=O)[C@H](Cc1ccccc1S)CC(C)C
3,220,CNC(=O)[C@H](Cc1ccc(OC)cc1)NC(=O)[C@@H](Cc1cccc(OC)c1S)CC(C)C
4,320,CNC(=O)[C@H](Cc1ccc(OC)cc1)NC(=O)C(Cc1c(S)cccc1Cl)CC(C)C (stereo not given in full)
5,230,CNC(=O)[C@H](Cc1ccc(OC)cc1)NC(=O)C(Cc1ccc(Cl)cc1S)CC(C)C (stereo not given in full)
6,290,CNC(=O)[C@H](Cc1ccc(OC)cc1)NC(=O)C(Cc1cccc(C(F)(F)F)c1S)CC(C)C (stereo not given in full)
7,160,CNC(=O)[C@H](Cc1ccc(OC)cc1)NC(=O)[C@H](Cc1cccc(OC)c1S)CC(C)C
8,340,CNC(=O)[C@H](Cc1ccc(OC)cc1)NC(=O)[C@@H](Cc1ccccc1S)CC(C)C
9,330,CNC(=O)[C@H](Cc1ccc(OC)cc1)NC(=O)C(Cc1cccc(Cl)c1S)CC(C)C (stereo not given in full)

# More lines, now with the values behind:
row,Structure (SMILES),IC50 [nM]
1,CC(C)CC(Cc1ccccc1S)C(=O)NC1CCCCCCCCCCNC1=O (stereo not given),> 100000
2,CNC(=O)[C@H](Cc1ccc(OC)cc1)NC(=O)[C@H](CC(C)C)[C@H](C)S,17
3,CNC(=O)[C@H](Cc1ccccc1)NC(=O)[C@H](Cc1ccccc1S)CC(C)C,30
4,CNC(=O)[C@H](Cc1ccc(OC)cc1)NC(=O)[C@H](CC(C)C)[C@@H](S)c1ccccc1,270
5,CNC(=O)[C@H](Cc1ccc(OC)cc1)NC(=O)C(Cc1ccc[nH]c1=S)CC(C)C (stereo not given in full),> 100000
6,CNC(=O)[C@H](Cc1ccccc1)NC(=O)[C@@H](Cc1ccccc1S)CC(C)C,1100
